What was measured:
AGS (Gastric Carcinoma) [1] = experiment: Bliss excess, mean over the matrix (fraction); higher = more synergy
How it was run: (§1)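 After 24 hours at 37°C and 5% CO2 in 1536-well plates, cells in DMEM/F12 or RPMI plus 10% FBS received two-drug dose matrices for 72 hours. Viability came from CellTiter-Glo 2.0 luminescence and was scaled as inhibition, anchored at 0 by vehicle wells and at 1 by blank wells. Combination Emax is taken as the second-highest inhibition in the matrix, and Bliss excess as the observed combination effect less EA + EB − EA·EB, with EA and EB the single-agent effects.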

KELLY (Neuroblastoma) = experiment: as above
How it was run: as §1

[2] = system: MDA-MB-361 (Breast Carcinoma); experiment: as above
How it was run: as §1

[3] = system: MFE-296 (Endometrial Carcinoma); experiment: as above
How it was run: as §1

[4] = system: SK-ES-1 (Ewing's Sarcoma); experiment: as above
How it was run: as §1

[5] = system: TE-9 (Esophageal Squamous Cell Carcinoma); experiment: as above
How it was run: as §1

AGS (Gastric Carcinoma) [6] = experiment: combination Emax (second highest fraction inhibited in the dose matrix, 72 h); higher = more inhibition; extreme values may be limits of the assay
How it was run: as §1

[7] = system: B-CPAP (Thyroid Gland Carcinoma); experiment: as above
How it was run: as §1

[8] = system: COLO-205 (Colorectal Carcinoma); experiment: as above
How it was run: as §1

[9] = system: Calu-3 (Lung Adenocarcinoma); experiment: as above
How it was run: as §1

[10] = system: EC-GI-10 (Esophageal Squamous Cell Carcinoma); experiment: as above
How it was run: as §1

[11] = system: HuP-T4 (Pancreatic Carcinoma); experiment: as above
How it was run: as §1

[12] = system: KP-1N (Pancreatic Carcinoma); experiment: as above
How it was run: as §1

[13] = system: LS-180 (Colorectal Carcinoma); experiment: as above
How it was run: as §1

[14] = system: LU-135 (Small Cell Lung Carcinoma); experiment: as above
How it was run: as §1

[15] = system: MDA-MB-361 (Breast Carcinoma); experiment: as above
How it was run: as §1

[16] = system: MFE-296 (Endometrial Carcinoma); experiment: as above
How it was run: as §1

NOS-1 (Osteosarcoma) = experiment: as above
How it was run: as §1

[17] = system: SNU-5 (Gastric Carcinoma); experiment: as above
How it was run: as §1

[18] = system: TE-15 (Esophageal Squamous Cell Carcinoma); experiment: as above
How it was run: as §1
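For Bliss excess, mean over the matrix in this document: after 72 h of two-drug dosing.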

| Compound | Bliss excess (AGS (Gastric Carcinoma) [1]) | Bliss excess (KELLY (Neuroblastoma)) | Bliss excess [2] | Bliss excess [3] | Bliss excess [4] | Bliss excess [5] | combination Emax (AGS (Gastric Carcinoma) [6]) | combination Emax [7] | combination Emax [8] | combination Emax [9] | combination Emax [10] | combination Emax [11] | combination Emax [12] | combination Emax [13] | combination Emax [14] | combination Emax [15] | combination Emax [16] | combination Emax (NOS-1 (Osteosarcoma)) | combination Emax [17] | combination Emax [18] |
| --- | --- | --- | --- | --- | --- | --- | --- | --- | --- | --- | --- | --- | --- | --- | --- | --- | --- | --- | --- | --- |
| CN(CCO)CC[C@H](CSc1ccccc1)Nc1ccc(S(=O)(=O)NC(=O)c2ccc(N3CCC([C@@H](O)c4ccccc4-c4ccc(Cl)cc4)CC3)cc2)cc1S(=O)(=O)C(F)(F)F [AZD4320] + C[C@@H]1COCCN1C2=NC(=NC(=C2)C3(CC3)[S@](=N)(=O)C)C4=C5C=CNC5=NC=C4 [AZD6738] (first compound max 1 µM, 7x7, partner max 10 µM) | -0.0162 | 0.033 | -0.0402 | 0.0178 | 0.0339 | 0.0198 | 0.993 | 0.804 | 0.623 | 0.284 | 0.647 | 0.621 | 0.269 | 0.739 | 1 | 0.918 | 0.559 | 0.914 | 0.978 | 0.908 |
| CN(CCO)CC[C@H](CSc1ccccc1)Nc1ccc(S(=O)(=O)NC(=O)c2ccc(N3CCC([C@@H](O)c4ccccc4-c4ccc(Cl)cc4)CC3)cc2)cc1S(=O)(=O)C(F)(F)F [AZD4320] + C[C@@H](Nc1cc(F)cc(F)c1)c1cc(C(=O)N(C)C)cc2c(=O)cc(N3CCOCC3)oc12 [AZD8186] (first compound max 1 µM, 7x7, partner max 3 µM) | 0.018 | 0.029 | 0.0094 | 0.0075 | 0.0521 | 0.0165 | 0.974 | 0.612 | 0.776 | 0.242 | 0.333 | 0.515 | 0.303 | 0.504 | 1 | 0.672 | 0.306 | 0.748 | 0.703 | 0.551 |
| CN(CCO)CC[C@H](CSc1ccccc1)Nc1ccc(S(=O)(=O)NC(=O)c2ccc(N3CCC([C@@H](O)c4ccccc4-c4ccc(Cl)cc4)CC3)cc2)cc1S(=O)(=O)C(F)(F)F [AZD4320] + Cc1cc2ncnn2cc1Nc1ncc2c(n1)n(C1CCOCC1)c(=O)n2C [AZD7648] (first compound max 1 µM, 7x7, partner max 10 µM) | -0.0298 | 0.0306 | 0.0056 | -0.0185 | 0.0809 | -0.016 | 0.318 | 0.408 | 0.669 | 0.182 | 0.232 | 0.156 | 0.0993 | 0.234 | 1 | 0.459 | 0.124 | 0.753 | 0.45 | 0.0708 |
| CN(CCO)CC[C@H](CSc1ccccc1)Nc1ccc(S(=O)(=O)NC(=O)c2ccc(N3CCC([C@@H](O)c4ccccc4-c4ccc(Cl)cc4)CC3)cc2)cc1S(=O)(=O)C(F)(F)F [AZD4320] + Cn1cnc2c(F)c(Nc3ccc(Br)cc3Cl)c(C(=O)NOCCO)cc21 [Selumetinib] (first compound max 1 µM, 7x7, partner max 3 µM) | 0.181 | 0.0525 | 0.0835 | -0.0178 | -0.0095 | 0.0456 | 1 | 0.741 | 1 | 0.245 | 0.51 | 0.544 | 0.196 | 0.691 | 1 | 0.334 | 0.396 | 0.69 | 0.759 | 0.43 |
| COc1nnc2ccc(N3CCC(c4ccc(OCCN5CCN(C)C(=O)[C@H]5C)cc4)CC3)nn12 [AZD5153] + C=CCn1c(=O)c2cnc(Nc3ccc(N4CCN(C)CC4)cc3)nc2n1-c1cccc(C(C)(C)O)n1 [AZD1775] (first compound max 1 µM, partner max 1 µM) | -0.0294 | -0.0581 | -0.136 | -0.0541 | -0.0279 | -0.0028 | 0.923 | 0.734 | 0.79 | 0.632 | 0.865 | 0.549 | 0.655 | 0.623 | 1 | 0.791 | 0.581 | 0.867 | 0.522 | 0.756 |
| COc1nnc2ccc(N3CCC(c4ccc(OCCN5CCN(C)C(=O)[C@H]5C)cc4)CC3)nn12 [AZD5153] + CC1(C)CCC(CN2CCN(c3ccc(C(=O)NS(=O)(=O)c4ccc(NCC5CCOCC5)c([N+](=O)[O-])c4)c(Oc4cnc5[nH]ccc5c4)c3)CC2)=C(c2ccc(Cl)cc2)C1 [Venetoclax] (first compound max 1 µM, 7x7, partner max 1 µM) | -0.0619 | -0.0857 | -0.0257 | -0.0824 | -0.0092 | -0.0599 | 0.774 | 0.622 | 0.566 | 0.621 | 0.251 | 0.485 | 0.481 | 0.61 | 0.98 | 0.443 | 0.27 | 0.728 | 0.469 | 0.503 |

Reference: the supplement of paper PMC11061612
